“And” between values parts separate entries of the source, which are not always exact repeats. Identical values can stand only once.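 Five compound concentrations were applied to cells in 96-well plates for 48 hours; endpoints were derived by simple linear interpolation of the resulting dose-response curve. GI50 is the concentration that inhibits growth by half. The concentration for full growth arrest is given as TGI.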
Experiments:
Assay in all cases: growth of human tumour cells (NCI), 48 h
[1] = system: DMS 273 small cell lung
[2] = system: HCC-2998 colon
[3] = system: HT29 colon
[4] = system: KM20L2 colon
[5] = system: LXFL 529 NSCLC
[6] = system: SNB-78 CNS
[7] = system: XF 498 CNS
[8] = system: MCF7 breast
[9] = system: T-47D breast

Structure (SMILES)	TGI [1]	TGI [2]	TGI [3]	TGI [4]	TGI [5] [µM]	TGI [6] [µM]	TGI [7] [µM]	GI50 [1] [µM]	GI50 [3]	GI50 [4] [µM]	TGI [8] [µM]	TGI [9] [µM]
O=C(/C=C/c1ccc(Cl)c(Cl)c1)c1ccc2ccccc2c1	> 100 µM	> 100 µM	> 100 µM	> 100 µM	> 100	> 100	–	–	–	–	–	–
Nc1ccccc1/C(O)=C1/CCOC1=O	–	–	> 100 µM	–	> 100	> 100	> 100	–	–	–	–	–
COc1cc(/C=C/c2ccc(OC)c(O)c2)cc(OC)c1	34.1 µM	42.6 µM	32.3 µM	47.5 µM	39.3	44.4	9.52	–	–	–	–	–
O=C(CC(=O)n1nc(-c2ccccc2)c(N=Nc2ccc(Cl)cc2)c1-c1ccccc1)Nc1ccc(Cl)cc1	> 100 µM	> 100 µM	> 59.7 µM	> 100 µM	> 100	> 100	–	–	–	–	–	–
CNC(=S)/N=C(\N)N(C)C	> 100 µM	> 100 µM	> 100 µM	> 100 µM	> 100	> 100	> 100	–	–	–	–	–
COc1cc2[nH]c3c(c2cc1OC)CCN[C@]31CC[C@]2(CC3c4c(cc(OC)c(O)c42)CCN3C)C[C@H]1OC (stereo not given in full)	4.46 µM	29.8 µM	63.3 µM	60.5 µM	61	60.4	29.8	–	–	–	–	–
CCCC1=C(CC)C(C(=O)Nc2c(C)cccc2C)=NC(S)N1 (stereo not given)	> 100 µM	–	> 100 µM	> 100 µM	> 100	> 100	> 100	–	–	–	–	–
c1cnn(CN(Cn2cccn2)Cn2cccn2)c1	> 100 µM	–	–	> 100 µM	–	> 100	> 100	–	–	–	–	–
COc1cc(Cc2nccc3cc(OC)c(OC)cc23)c(C(C)=O)cc1OC	300 µM and > 750 µM	300 µM and > 750 µM	300 µM and 626 µM	200 µM and > 750 µM	> 750	214	300	> 750	96.8 µM and 140 µM	> 750	300	25.1
O=C(O)CNS(=O)(=O)c1ccc(NC(=O)c2ccc([N+](=O)[O-])cc2)cc1	> 100 µM	> 100 µM	> 100 µM	> 100 µM	> 100	–	> 100	–	–	–	–	–
COc1ccc(CN2CC(C)(C)C2=O)c(OC)c1	> 100 µM	> 100 µM	> 100 µM	> 100 µM	–	> 100	> 100	–	–	–	–	–
CC1=CC(C)(C)N=C2SC(c3ccc(N)cc3)=NN12	> 61.2 µM	> 100 µM	98.2 µM	> 100 µM	> 77.6	> 100	> 100	–	–	–	–	–
CCCCNC1CCCCC[C@H]1O (stereo not given in full)	> 100 µM	> 100 µM	> 100 µM	> 100 µM	> 100	> 100	–	–	–	–	–	–
O=C(Nc1cc(Cl)c(Cl)cc1Cl)C(=O)C1C(=O)NC(=S)NC1=O	> 100 µM	> 100 µM	> 100 µM	> 100 µM	> 100	> 100	> 100	–	–	–	–	–
COC(=O)C(Cc1nc2ccccc2[nH]c1=O)C(NO)C(=O)Nc1c(Cl)cc([N+](=O)[O-])cc1Cl (stereo not given)	–	> 100 µM	> 100 µM	–	–	> 100	–	–	–	–	–	–
CCOC(=O)/C(C)=C(/O)C(=O)OCC	> 100 µM	> 100 µM	> 100 µM	–	> 100	> 100	> 100	–	–	–	–	–
O=C(CCc1nc(=S)[nH][nH]1)Nc1ccccc1Cl	> 100 µM	> 100 µM	> 100 µM	> 100 µM	> 100	> 100	> 100	–	–	–	–	–
Cc1nnc(NS(=O)(=O)c2ccc(N=Nc3cc(N=Nc4ccc(S(=O)(=O)Nc5nnc(C)s5)cc4)c4c(NC(=O)C(Cl)Cl)cccc4c3OC(=O)C(Cl)Cl)cc2)s1 (tested in a mixture with another compound)	39.8 µM	62.1 µM	> 100 µM	> 100 µM	> 100	> 100	92.9	–	–	–	–	–
CCCN(CCC)C(=O)c1c([N+](=O)[O-])cc(C(F)(F)F)cc1[N+](=O)[O-]	> 100 µM	–	> 100 µM	53.7 µM	> 100	> 100	–	–	–	–	–	–
O=C(N/N=C/c1cc(Br)ccc1O)N/N=C/c1cc(Br)ccc1O	> 100 µM	–	> 100 µM	> 100 µM	–	–	> 100	–	–	–	–	–
CC1=[N+]([O-])c2ccccc2C(=O)C1=O	> 100 µM	> 100 µM	> 100 µM	> 100 µM	> 100	> 100	> 100	–	–	–	–	–

Source: PubChem BioAssay (NCI)
